Data published in patent US8686022B2, “7-(piperazine-1-ymethyl)-1H-indole-2-carboxylic acid (phenyl)-amide derivatives and allied compounds as p38 MAP kinase inhibitors for the treatment of respiratory diseases” (Boehringer Ingelheim International GmbH, priority 2008, dated 2014).
In brackets after ≈: the same amount, converted by molar mass. Several values for one entry are separate records, joined by “and”; a condition that tells them apart may be missing. Identical values can stand only once.

Columns and labels:
[1] = target: p38 MAP-kinase (Homo sapiens, UniProt Q16539); test: p38 MAP-kinase enzymatic assay (phosphorylation of GST-tagged ATF2, chemoluminescence); type: biochemical; conditions: inhibitor concentration 1 μM, activated p38 MAP-kinase 1 nM, ATP 100 μM; for inhibition at 1 µM: read-out: p38 (% Inh @ 1 μM)
Description: In this, the amount of a substrate phosphorylated by the kinase is quantified. The test is carried out as follows:
The kinase reaction is carried out in the presence of HEPES (20 mM, pH 7), MgCl2 (10 mM), DTT (1 mM) and TWEEN20 (0.01%). First, dimethylsulphoxide or inhibitor (final concentration: 1 μM) dissolved in dimethylsulphoxide are placed in a reaction vessel. Then the activated p38 MAP-kinase (final concentration 1 nM) is added and the mixture is incubated for 4 h at ambient temperature. Then a mixture of substrate (GST-tagged ATF2) and ATP is added and everything is incubated together for a further hour (final concentration ATP: 100 μM; final concentration ATF2: 10 nM).
The concentration of phosphorylated ATF2 is quantified by chemoluminescence-induced light emission. For this, a glutathione donor bead (final concentration: 5 μg/ml) which binds to the gluthathione on the ATF2 and phospho-ATF2 antibodies are added to the reaction mixture (final concentration: 3 nM; this binds the phosphate group added by the kinase reaction) to which a Protein A Acceptor Bead (final concentration: 5 μg/ml) binds. These components are dissolved in a buffer which contains 20 mM HEPES pH 7.0, 200 mM NaCL, 80 mM EDTA as well as 0.3% BSA. This reaction mixture is incubated in the dark for 1 hour at ambient temperature. When these beads come physically close, visible light is emitted which is measured in a photometer at 520-620 nm.
To determine the inhibitory activity of the compounds according to the invention a calculation is made to determine the percentage by which the kinase activity is inhibited at a fixed inhibitor concentration of 1 μM. The maximum activity is determined by non-inhibited kinase. The minimum activity or nonspecific background activity is determined using a reaction mixture without kinase.
Table 2 summarises the degree of inhibition of the enzyme p38 MAP-kinase—as described hereinbefore—mediated by the compounds according to the invention detailed in the section “Preparation of the final compounds”.

[2] = target: cytochrome P450 2C9 (Homo sapiens, UniProt P11712); test: Determining the cyp2C9 activity (O-demethylation of [O-methyl-14C]-naproxen); type: in vitro ADME; conditions: human recombinant cytochrome P450 2C9; 37° C.; <0.4 μM when inhibition >50% at lowest concentration; read-out: CYP 2C9 IC50
Description: Determining the cyp2C9 Activity:
The assay is carried out in a robot system with 96-well plates. The final incubation volume is 200 μl of TRIS-Puffer (0.1 M), magnesium chloride (5 mM), recombinant protein (40 pmol/ml), ^14C-labelled naproxen (80 μM) and the test compound in one of 4 concentrations (50 μM, 10 μM, 2 μM and 0.4 μM) as a duplicate in each case. After a short preincubation period the reactions are started by the addition of the cofactor (NADPH, 1 mM) and ended after 15 min by the addition of 50 μl of a 10% aqueous trichloroacetic acid solution. One aliquot of the incubate is transferred onto a 96-well solid phase extraction plate and extracted. The ^14C-formaldehyde formed during the reaction is not retained on the solid phase extraction plate and is thus separated from the unmetabolised substrate by washing the solid phase extraction plate with water. One aliquot of the eluate is transferred into a well plate suitable for liquid scintillation. […] The IC50 is determined by the least squares method using the following formula: control activity=(100% control activity/(1+(I/IC50)S))−B where I=Inhibitor concentration S=Pitch B=Background activity
When the inhibition of the reaction is >50% even at the lowest concentration of the test compound, the IC50 is given as <0.4 μM.

[3] = Determining the solubility (saturated solution in McIlvaine buffer pH 7.4, UV spectroscopy); type: physicochemical; conditions: pH 7.4, aqueous buffer, thermodynamic from solid, shaken 2 hours, 0.75 mg solid in 0.75 ml
Description: Determining the Solubility:
Saturated solutions are prepared in suitable well dishes by adding 0.75 ml of a McIlvaine buffer (pH 7.4) to the well in question containing 0.75 mg of solid of an active substance. The wells are shaken for 2 hours and then filtration is carried out through a suitable filter membrane (typically polytetrafluoroethylene with a pore size of 0.45 μm). Filter absorption is prevented by discarding the first few drops of filtrate. The amount of active substance dissolved is determined by UV spectroscopy.

Chain of cytochrome P450 2C9 (P11712 whole entry): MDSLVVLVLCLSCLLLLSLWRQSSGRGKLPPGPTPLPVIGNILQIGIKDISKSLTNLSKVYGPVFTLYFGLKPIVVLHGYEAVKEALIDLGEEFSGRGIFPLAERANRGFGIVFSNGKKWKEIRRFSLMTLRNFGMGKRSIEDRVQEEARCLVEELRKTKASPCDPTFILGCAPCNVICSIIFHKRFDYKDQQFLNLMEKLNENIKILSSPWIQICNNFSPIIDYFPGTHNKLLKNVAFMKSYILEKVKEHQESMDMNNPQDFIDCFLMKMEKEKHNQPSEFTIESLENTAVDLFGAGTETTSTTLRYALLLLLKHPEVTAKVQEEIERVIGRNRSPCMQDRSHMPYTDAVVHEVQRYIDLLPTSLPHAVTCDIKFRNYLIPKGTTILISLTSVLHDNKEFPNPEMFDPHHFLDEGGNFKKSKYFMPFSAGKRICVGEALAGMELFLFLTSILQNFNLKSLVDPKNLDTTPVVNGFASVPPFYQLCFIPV
Chain of p38 MAP-kinase (Q16539 whole entry): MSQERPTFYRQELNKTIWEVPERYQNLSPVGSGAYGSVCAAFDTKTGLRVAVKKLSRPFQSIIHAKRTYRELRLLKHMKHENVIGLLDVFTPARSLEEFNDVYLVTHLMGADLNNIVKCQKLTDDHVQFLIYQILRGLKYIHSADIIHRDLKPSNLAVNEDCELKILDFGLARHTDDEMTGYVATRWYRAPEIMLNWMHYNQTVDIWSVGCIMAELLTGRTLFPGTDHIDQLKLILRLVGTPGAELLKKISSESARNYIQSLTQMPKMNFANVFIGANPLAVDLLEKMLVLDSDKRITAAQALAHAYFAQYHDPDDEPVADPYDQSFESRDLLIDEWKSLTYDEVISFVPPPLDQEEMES

| Compound | inhibition at 1 µM [1] [%] | IC50 [2] | solubility at 2 h [3] [µg/mL] | p38 (% Inh @ 1 μM) [1] |
| --- | --- | --- | --- | --- |
| COc1c(CN2CCN(C(C)C)CC2)cc(C(C)(C)C)cc1NC(=O)c1cc2cccc(CN3CCN(C(=O)[C@@H]4CCCN4C)CC3)c2n1C [9(7), (S)-1-methyl-7-[4-(1-methyl-pyrrolidine-2-carbonyl)-piperazin-1-ylmethyl]-1H-indole-2-carboxylic acid-[5-tert-butyl-3-(4-isopropyl-piperazin-1-ylmethyl)-2-methoxy-phenyl]-amide] | 98.8 | 44700 nM | 880 (≈ 1280 µM) | – |
| COc1c(CN2CCC(N(C)C)CC2)cc(C(C)(C)C)cc1NC(=O)c1cc2cccc(CN3CCN(C(=O)[C@@H]4CCCN4C)CC3)c2n1C [9(5), (S)-1-methyl-7-[4-(1-methyl-pyrrolidine-2-carbonyl)-piperazin-1-ylmethyl]-1H-indole-2-carboxylic acid-[5-tert-butyl-3-(4-dimethylamino-piperidin-1-ylmethyl)-2-methoxy-phenyl]-amide] | 97.5 | 6880 nM | 490 (≈ 714 µM) | – |
| CCC(C)c1cc(NC(=O)c2cc3cccc(CN4CCN(C(=O)[C@@H]5CCCN5C)CC4)c3n2C)c(OC)c(NS(C)(=O)=O)c1 (stereo partly drawn) [11(1), 1-methyl-7-[4-((2S)-1-methyl-pyrrolidine-2-carbonyl)-piperazin-1-ylmethyl]-1H-indole-2-carboxylic acid-(5-sec-butyl-3-methanesulphonylamino-2-methoxy-phenyl)-amide] | 13.2 | 2650 nM | > 1000 | – |
| COc1c(CO)cc(C(C)(C)C)cc1NC(=O)c1cc2cccc(CN3CCN(C(=O)[C@@H]4CCCN4C)CC3)c2n1C [Example 15, (S)-1-methyl-7-[4-(1-methyl-pyrrolidine-2-carbonyl)-piperazin-1-ylmethyl]-1H-indole-2-carboxylic acid-(5-tert-butyl-3-hydroxymethyl-2-methoxy-phenyl)-amide] | 99.4 | 2540 nM | 230 (≈ 399 µM) | – |
| CCNC(=O)c1cc(C(C)(C)C)cc(NC(=O)c2cc3cccc(CN4CCN(C(=O)[C@@H]5CCCN5C)CC4)c3n2C)c1OC [10(2), (S)-1-methyl-7-[4-(1-methyl-pyrrolidine-2-carbonyl)-piperazin-1-ylmethyl]-1H-indole-2-carboxylic acid-(5-tert-butyl-3-ethylcarbamoyl-2-methoxy-phenyl)-amide] | 99.4 | 460 nM | 390 (≈ 632 µM) | – |
| COc1c(NC(=O)c2cc3cccc(CN4CCN(C(=O)[C@@H]5CCCN5C)CC4)c3n2C)cc(C(C)(C)C)cc1C(N)=O [10(4), (S)-1-methyl-7-[4-(1-methyl-pyrrolidine-2-carbonyl)-piperazin-1-ylmethyl]-1H-indole-2-carboxylic acid-(5-tert-butyl-3-carbamoyl-2-methoxy-phenyl)-amide] | 99.1 | 440 nM | 370 (≈ 628 µM) | – |
| COc1c(NC(=O)c2cc3cccc(CN4CCN(C(=O)[C@@H]5CCCN5C)CC4)c3n2C)cc(C(C)(C)C)cc1[S+](C)[O-] (stereo partly drawn) [11(3), 1-methyl-7-[4-((2S)-1-methyl-pyrrolidine-2-carbonyl)-piperazin-1-ylmethyl]-1H-indole-2-carboxylic acid-(5-tert-butyl-3-methanesulphinyl-2-methoxy-phenyl)-amide] | 98.6 | 780 nM and 870 nM and 560 nM | – | 99.0% and 98.7% |

Further lines, results first:

| inhibition at 1 µM [1] [%] | IC50 [2] | solubility at 2 h [3] [µg/mL] | p38 (% Inh @ 1 μM) [1] | Compound |
| --- | --- | --- | --- | --- |
| 99.3 | 1430 nM | 560 (≈ 878 µM) | – | COc1c(NC(=O)c2cc3cccc(CC4CCN(C(=O)[C@H]5CCCN5C)CC4)c3n2C)cc(C(C)(C)C)cc1NS(C)(=O)=O [1(6), (R)-1-methyl-7-[1-(1-methyl-pyrrolidine-2-carbonyl)-piperidin-4-ylmethyl]-1H-indole-2-carboxylic acid(5-tert-butyl-3-methanesulphonylamino-2-methoxy-phenyl)-amide] |
| 98.7 | 5320 nM | 110 (≈ 168 µM) | – | COc1c(NC(=O)c2cc3cccc(CN4CCN(C(=O)CN5CCNCC5)CC4)c3n2C)cc(C(C)(C)C)cc1NS(C)(=O)=O [Example 7, 1-methyl-7-[4-(2-piperazin-1-yl-acetyl)-piperazin-1-ylmethyl]-1H-indole-2-carboxylic acid-(5-tert-butyl-3-methanesulphonylamino-2-methoxy-phenyl)-amide] |
| 99.2 | 890 nM | 100 (≈ 160 µM) | – | COc1c(NC(=O)c2cc3cccc(CN4CCN(C(=O)[C@@H]5CCCN5)CC4)c3n2C)cc(C(C)(C)C)cc1NS(C)(=O)=O [1(4), (S)-1-methyl-7-[4-(pyrrolidine-2-carbonyl)-piperazin-1-ylmethyl]-1H-indole-2-carboxylic acid(5-tert-butyl-3-methanesulphonylamino-2-methoxy-phenyl)-amide] |
| 94.9 | 2040 nM | 170 (≈ 260 µM) | – | COc1c(NC(=O)c2cc3cccc(CN4CCCN(C(=O)[C@H]5CCN(C)C5)CC4)c3n2C)cc(C(C)(C)C)cc1NS(C)(=O)=O [5(1), (S)-1-methyl-7-[4-(1-methyl-pyrrolidine-3-carbonyl)-[1,4]diazepan-1-ylmethyl]-1H-indole-2-carboxylic acid-(5-tert-butyl-3-methanesulphonylamino-2-methoxy-phenyl)-amide] |
| 97.9 | 5270 nM | 97 (≈ 149 µM) | – | COc1c(NC(=O)c2cc3cccc(CN4CCN(C(=O)[C@@H]5CCCN5C)CC4)c3n2C)cc(C(F)(F)F)cc1NS(C)(=O)=O [14(1), (S)-1-methyl-7-[4-(1-methyl-pyrrolidine-2-carbonyl)-piperazin-1-ylmethyl]-1H-indole-2-carboxylic acid-(3-methanesulphonylamino-2-methoxy-5-trifluoromethyl-phenyl)-amide] |
| 99 | 1260 nM | 85 (≈ 139 µM) | – | COc1c(NC(=O)c2cc3cccc(CN4CCN(C(=O)C5CNC5)CC4)c3n2C)cc(C(C)(C)C)cc1NS(C)(=O)=O [Example 3, 7-[4-(azetidine-3-carbonyl)-piperazin-1-ylmethyl]-1-methyl-1H-indole-2-carboxylic acid (5-tert-butyl-3-methanesulphonylamino-2-methoxy-phenyl)-amide] |
| 98.9 | 4020 nM | 45 (≈ 68.9 µM) | – | COc1c(NC(=O)c2cc3cccc(CN4CCCN(C(=O)[C@H]5CCCN5C)CC4)c3n2C)cc(C(C)(C)C)cc1NS(C)(=O)=O [1(21), 1-methyl-7-[4-((2R)-1-methyl-pyrrolidine-2-carbonyl)-[1,4]diazepan-1-ylmethyl]-1H-indole-2-carboxylic acid-(5-tert-butyl-3-methanesulphonylamino-2-methoxy-phenyl)-amide] |
| 97.3 | 1670 nM | 280 (≈ 429 µM) | – | COc1c(NC(=O)c2cc3cccc(CN4CCCN(C(=O)[C@@H]5CCCN5C)CC4)c3n2C)cc(C(C)(C)C)cc1NS(C)(=O)=O [Example 8, 1-methyl-7-[4-((2S)-1-methyl-pyrrolidine-2-carbonyl)-[1,4]diazepan-1-ylmethyl]-1H-indole-2-carboxylic acid-(5-tert-butyl-3-methanesulphonylamino-2-methoxy-phenyl)-amide] |
| 99.1 | < 400 nM | < 1 | – | COc1c(NC(=O)c2cc3cccc(CN4CCN(C(=O)C5(C)CC5)CC4)c3n2C)cc(C(C)(C)C)cc1NS(C)(=O)=O [Vb, reference compound] |
